Experimental data taken from patent US12655461B2 (priority 2020, dated 2026).

Tests used:
[1] = test system: lac promoter in BL21 cells (pEC-GFP); experiment: IPTG induction of GFP from lac promoter (pEC-GFP) in BL21 cells; type: cell-based, E. coli; settings: 0.01 mM and 0.1 mM IPTG, 24 hours
[2] = test system: E. coli cells; settings: LB media, 37° C., OD600
[3] = test system: synthetic cyn promoter (pCyn-v2-GFP) in E. coli BW25113-Wt
[4] = test system: cyn promoter/operator regulated by cynR (pCyn-v1-GFP); experiment: GFP expression from pCyn-v1-GFP (native cyn promoter) induced with cyanate or azide, flow cytometry and bulk lysate fluorescence; type: cell-based, E. coli; settings: 1 mM inducer

SMILES: CC(C)S[C@@H]1O[C@H](CO)[C@H](O)[C@H](O)[C@H]1O [IPTG]
- GFP expression at lower inducer concentrations over time [1]: GFP expression increased with time and reached maximum after 24 hours

SMILES: [N-]=[N+]=[N-] [sodium azide]
- azide amount showing dramatic influence on the growth of the cells [2]: > 5 mM
- azide concentration until which GFP expression increased [3]: 1 mM
- detection limit of the synthetic promoter for azide [3]: > 10 µM

SMILES: N#CO [sodium cyanate]
- GFP fluorescence of induced cells compared to uninduced control ([4]; BW25113 wildtype, 19 hours, flow cytometry): did not result in any GFP expression
- GFP expression of induced cells ([4]; ΔcynS strain (BW25113-sCB1)): recovered the GFP expression
